# Molecular target: T1, human renal renin (Homo sapiens, UniProt P00797)
# T1 construct: human renal renin, free from acid proteolytic activity; from tissue
# T1 sequence (P00797 67-406): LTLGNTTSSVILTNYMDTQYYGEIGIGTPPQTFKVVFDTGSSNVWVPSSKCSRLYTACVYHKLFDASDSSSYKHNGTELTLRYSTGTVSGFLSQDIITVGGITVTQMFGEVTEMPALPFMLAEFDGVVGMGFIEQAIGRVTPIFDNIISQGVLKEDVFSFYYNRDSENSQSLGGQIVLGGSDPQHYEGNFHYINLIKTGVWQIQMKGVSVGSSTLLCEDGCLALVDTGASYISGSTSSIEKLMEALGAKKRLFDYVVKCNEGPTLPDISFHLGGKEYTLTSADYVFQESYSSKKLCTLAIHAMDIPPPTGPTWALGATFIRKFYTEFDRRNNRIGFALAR
# Assay: Inhibition of human renal renin in vitro (angiotensin I formed measured by radioimmunoassay)
# Type: biochemical
# Settings: human renal renin free from acid proteolytic activity, renin substrate human angiotensinogen, 37 degrees C, pH 6.0; read-out: IC50 (molar concentration required to cause 50% inhibition)
# Experimental: The compounds of the invention are also useful for treating congestive heart failure in a mammal. […] At the end of the incubation, the amount of angiotensin I formed is measured by radioimmunoassay and the molar concentration required to cause 50% inhibition, expressed as the IC50, is calculated.
row,SMILES,IC50 [nM]
1,"CC(C)C[C@H](O)[C@H](O)[C@H](CC1CCCCC1)NC(=O)[C@H](Cc1cscn1)NC(=O)[C@@H](CC(=O)N(C)CCn1ccnc1)Cc1ccccc1 [Example 117, (2R)-2-Benzyl-3-[(2-imidazol-1-ylethyl)methylaminocarbonyl]propionyl-L-(4-thiazolyl)Ala Amide of (2S,3R,4S)-2-Amino-1-cyclohexyl-3,4-dihydroxy-6-methylheptane]",0.3
2,"CC(C)C[C@H](O)[C@H](O)[C@H](CC1CCCCC1)NC(=O)[C@H](Cc1cscn1)NC(=O)[C@@H](CC(=O)N(C)CCn1cccn1)Cc1ccccc1 [Example 118, (2R)-2-Benzyl-3-[(2-pyrazol-1-ylethyl)methylaminocarbonyl]propionyl-L-(4-thiazolyl)Ala Amide of (2S,3R,4S)-2-Amino-1-cyclohexyl-3,4-dihydroxy-6-methylheptane]",0.3
3,"CC(C)C[C@H](O)[C@H](O)[C@H](CC1CCCCC1)NC(=O)[C@H](Cn1cccn1)NC(=O)[C@@H](CC(=O)N(C)CCc1ccccn1)Cc1ccccc1 [Example 119, (2R)-2-Benzyl-3-[(2-pyridin-2-ylethyl)methylaminocarbonyl]propionyl-L-(1-pyrazolyl)Ala Amide of (2S,3R,4S)-2-Amino-1-cyclohexyl-3,4-dihydroxy-6-methylheptane]",0.33
4,"CC(C)C[C@H](O)[C@H](O)[C@H](CC1CCCCC1)NC(=O)[C@H](Cn1cccn1)NC(=O)[C@@H](CC(=O)N(C)CCn1ccnc1)Cc1ccccc1 [Example 120, (2R)-2-Benzyl-3-[(2-imidazol-1-ylethyl)methylaminocarbonyl]propionyl-L-(1-pyrazolyl)Ala Amide of (2S,3R,4S)-2-Amino-1-cyclohexyl-3,4-dihydroxy-6-methylheptane]",0.22
5,"CCCC[C@H](NC(=O)[C@@H](CC(=O)N(C)CCn1cccn1)Cc1ccccc1)C(=O)N[C@@H](CC1CCCCC1)[C@@H](O)[C@@H](O)CC(C)C [Example 121, (2R)-2-Benzyl-3-[(2-pyrazol-1-ylethyl)methylaminocarbonyl]propionyl-Nle Amide of (2S,3R,4S)-2-Amino-1-cyclohexyl-3,4-dihydroxy-6-methylheptane]",0.33
6,"CCCC[C@H](NC(=O)[C@@H](CC(=O)N(C)CCc1ccccn1)Cc1ccccc1)C(=O)N[C@@H](CC1CCCCC1)[C@@H](O)[C@@H](O)CC(C)C [Example 122, (2R)-2-Benzyl-3-[(2-pyridin-2-ylethyl)methylaminocarbonyl]propionyl-Nle Amide of (2S,3R,4S)-2-Amino-1-cyclohexyl-3,4-dihydroxy-6-methylheptane]",0.43
7,"CCCC[C@H](NC(=O)[C@@H](CC(=O)N(C)CCn1ccnc1)Cc1ccccc1)C(=O)N[C@@H](CC1CCCCC1)[C@@H](O)[C@@H](O)CC(C)C [Example 123, (2R)-2-Benzyl-3-[(2-imidazol-1-ylethyl)methylaminocarbonyl]propionyl-Nle Amide of (2S,3R,4S)-2-Amino-1-cyclohexyl-3,4-dihydroxy-6-methylheptane]",0.26
8,"CC(C)C[C@H](O)[C@H](O)[C@H](CC1CCCCC1)NC(=O)[C@H](Cc1cscn1)NC(=O)[C@@H](CC(=O)N(C)c1ccncc1)Cc1ccccc1 [Example 124, (2R)-2-Benzyl-3-[(N-pyridin-4-yl)methylaminocarbonyl]propionyl-L-(4-thiazolyl)Ala Amide of (2S,3R,4S)-2-Amino-1-cyclohexyl-3,4-dihydroxy-6-methylheptane]",0.34
9,"CC(C)C[C@H](O)[C@H](O)[C@H](CC1CCCCC1)NC(=O)[C@H](Cc1cscn1)NC(=O)[C@@H](CC(=O)N1CCN(C2CC2)CC1)Cc1ccccc1 [Example 125, (2R)-2-Benzyl-3-[(4-cyclopropylpiperazin-1-yl)carbonyl]propionyl-L-(4-thiazolyl)Ala Amide of (2S,3R,4S)-2-Amino-1-cyclohexyl-3,4-dihydroxy-6-methylheptane]",0.55
10,"CC(C)C[C@H](O)[C@H](O)[C@H](CC1CCCCC1)NC(=O)C(Cn1cccn1)N(C)C(=O)[C@@H](CC(=O)N(C)CCc1ccccn1)Cc1ccccc1 (stereo partly drawn) [Example 134, (2R)-2-Benzyl-3-[(2-pyridin-2-ylethyl)methylaminocarbonyl]propionyl-(N-α-methyl)-(1-pyrazolyl) alanine Amide of (2S,3R,4S)-2-Amino-1-cyclohexyl-3,4-dihydroxy-6-methylheptane]",1.3
11,"CC(C)C[C@H](O)[C@H](O)[C@H](CC1CCCCC1)NC(=O)[C@H](Cn1cccn1)NC(=O)[C@@H](CC(=O)N(C)CCN1CCOCC1)Cc1ccccc1 [Example 140, (2R)-2-Benzyl-3-[(2-morpholin-4-ylethyl)methylaminocarbonyl]propionyl-L-(1-pyrazolyl)Ala Amide of (2S,3R,4S)-2-Amino-1-cyclohexyl-3,4-dihydroxy-6-methylheptane.]",0.12
12,"CC(C)C[C@H](O)[C@H](O)[C@H](CC1CCCCC1)NC(=O)[C@H](Cn1ccnc1)NC(=O)[C@@H](CC(=O)N(C)CCc1ccccn1)Cc1ccccc1 [Example 141, (2R)-2-Benzyl-3-[(2-pyridin-2-ylethyl)methylaminocarbonyl]propionyl-L-(1-imidazolyl)Ala Amide of (2S,3R,4S)-2-Amino-1-cyclohexyl-3,4-dihydroxy-6-methylheptane]",0.88
13,"CC(C)C[C@H](O)[C@H](O)[C@H](CC1CCCCC1)NC(=O)[C@H](Cn1cccn1)NC(=O)[C@@H](CC(=O)N(C)CCn1cccn1)Cc1ccccc1 [Example 142, (2R)-2-Benzyl-3-[(2-pyrazol-1-ylethyl)methylaminocarbonyl]propionyl-L-(1-pyrazolyl)Ala Amide of (2S,3R,4S)-2-Amino-1-cyclohexyl-3,4-dihydroxy-6-methylheptane]",0.19
14,"CC(C)C[C@H](O)[C@H](O)[C@H](CC1CCCCC1)NC(=O)[C@H](Cc1cscn1)NC(=O)[C@@H](CC(=O)N(C)CCc1c[nH]c2ccccc12)Cc1ccccc1 [Example 152, (2R)-2-Benzyl-3-[(2-indol-3-ylethyl)methylaminocarbonyl]propionyl-L-(4-thiazolyl)Ala Amide of (2S,3R,4S)-2-Amino-1-cyclohexyl-3,4-dihydroxy-6-methylheptane]",0.59
15,"CC(C)C[C@H](O)[C@H](O)[C@H](CC1CCCCC1)NC(=O)[C@H](Cc1cscn1)NC(=O)[C@@H](CC(=O)N(C)CCn1cccc1)Cc1ccccc1 [Example 153, (2R)-2-Benzyl-3-[(2-pyrrol-1-ylethyl)methylcarbonyl]propionyl-L-(4-thiazolyl)Ala Amide of (2S,3R,4S)-2-Amino-1-cyclohexyl-3,4-dihydroxy-6-methylheptane]",0.28
16,"CC(C)C[C@H](O)[C@H](O)[C@H](CC1CCCCC1)NC(=O)[C@H](Cc1cscn1)NC(=O)[C@@H](CC(=O)CCCc1ccncc1)Cc1ccccc1 [Example 154, (2R)-2-Benzyl-3-[(2-pyridin-4-ylethyl)methylcarbonyl]propionyl-L-(4-thiazolyl)Ala Amide of (2S,3R,4S)-2-Amino-1-cyclohexyl-3,4-dihydroxy-6-methylheptane]",0.21
17,"CC(C)C[C@H](O)[C@H](O)[C@H](CC1CCCCC1)NC(=O)[C@H](Cc1cc[nH]n1)NC(=O)[C@@H](CC(=O)N(C)CCN1CCOCC1)Cc1ccccc1 [Example 155, (2R)-2-Benzyl-3-[(2-morpholin-4-ylethyl)methylcarbonyl]propionyl-L-(3-pyrazolyl)Ala Amide of (2S,3R,4S)-2-Amino-1-cyclohexyl-3,4-dihydroxy-6-methylheptane]",0.32
18,"CC(C)C[C@H](O)[C@H](O)[C@H](CC1CCCCC1)NC(=O)[C@H](Cn1cccn1)N(C)C(=O)C(Cc1ccccc1)NC(=O)N(C)CCc1ccccn1 (stereo partly drawn) [Example 156, [(2-pyridin-2-ylethyl)methylcarbonyl]phenylalanine-L-(N-α-methyl)-(1-pyrazolyl)alanine Amide of (2S,3R,4S)-2Amino-1-cyclohexyl-3,4-dihydroxy-6-methylheptane]",1.3
